Laboratory results: patent EP2718307B1, “BETA-HAIRPIN PEPTIDOMIMETICS AS CXC4 ANTAGONISTS” (Polyphor AG, priority 2011, dated 2012)
Bridge positions count the residues as written; N and C are the ends. Square brackets hold non-standard residues; d marks the D form. Peptide text beside a SMILES is read from it. Lys(iPr) = CC(C)NCCCC[C@H](N)C(=O)O; Orn(iPr) = CC(C)NCCC[C@H](N)C(=O)O; Dab = NCC[C@H](N)C(=O)O

What was measured:
CXCR4 receptor = target: T1, CXCR4 receptor (Homo sapiens, UniProt P61073); assay: Chemotactic assay (cell migration assay): response of Namalwa cells to an SDF-1 gradient; format: cell-based
T1 construct: Namalwa cells (CXCR4 natively expressing non-adherent cells, ATCC CRL-1432); host or cells: Namalwa cells
T1 sequence (P61073 whole entry): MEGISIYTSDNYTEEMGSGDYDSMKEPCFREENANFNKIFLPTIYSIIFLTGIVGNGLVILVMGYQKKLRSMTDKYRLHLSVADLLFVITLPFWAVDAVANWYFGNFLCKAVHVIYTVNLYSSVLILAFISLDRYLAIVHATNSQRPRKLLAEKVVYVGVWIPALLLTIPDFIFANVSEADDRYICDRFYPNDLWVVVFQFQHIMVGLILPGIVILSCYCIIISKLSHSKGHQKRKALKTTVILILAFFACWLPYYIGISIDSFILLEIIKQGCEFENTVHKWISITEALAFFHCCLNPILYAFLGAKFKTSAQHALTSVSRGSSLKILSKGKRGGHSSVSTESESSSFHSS
Procedure: Namalwa cells (CXCR4 natively expressing non-adherent cells, ATCC CRL-1432) were cultured in RPMI1640 plus 10% FBS, and pen/strept. HELA cells were maintained in RPMI1640 plus 10% FBS, pen/strept and 2 mM L-glutamine. Cos-7 cells were grown in DMEM medium with […] glucose supplemented with 10% FCS, pen/strept and 2 mM L-glutamine. All cell lines were grown at 37 °C at 5% CO2. Cell media, media supplements, PBS-buffer, HEPES, antibiotic/antimycotic, pen/strept, non essential amino acid, L-glutamine, β-mercaptoethanol and sera were purchased from Gibco (Pailsey, UK). All fine chemicals were supplied by Merck (Darmstadt, Germany).
The chemotactic response of Namalwa cells (ATCC CRL-1432) to a gradient of stromal cell-derived factor 1α (SDF-1) was measured using a modified Boyden chamber chemotaxis system (ChemoTx; Neuroprobe). In this system, the upper chamber of each well is separated from the lower chamber containing the chemoattractant SDF-1 by a polycarbonate membrane (5µm pore size). A circular area of that membrane in the region that covers each lower well is enclosed by a hydrophobic mask to retain the cell suspension within this area. The system was prepared by loading the bottom wells with aliquots of […] chemotaxis medium (RPMI 1640 without Phenol red + 0.5% BSA) comprising either appropriate serial dilutions of peptides or no peptide at all in combination with SDF-1 (0.9 nM) or without the chemoattractant. The membrane was placed over the bottom wells, and aliquots of 50 µL of a suspension of Namalwa cells (3.6 x 10^6 cells/mL) in chemotaxis medium, premixed with chemotaxis medium comprising either appropriate serial dilutions of peptides or no peptide at all, was delivered onto each of the hydrophobically limited regions of the upper surface of the membrane. The cells were allowed to migrate into the bottom chamber for 5 h at 37 °C in 5% CO2. After this period, the membrane was removed and its topside was carefully wiped and washed with PBS to eliminate non-migrated cells. Migrated cells were transferred using a "funnel" adaptor to a receiving 96-well plate and the cell number was determined by using the CyQuant™ NF cell proliferation assay (Invitrogen) based on the measurement of cellular DNA content via fluorescent dye binding. Following the manufacturer's directions, 50 µL of CyQuant™ dye reagent/HBSS buffer (1/500 [v/v]) were added to each well of the above mentioned receiving 96-well plate. After incubation for 0.5 h at room temperature the plate was sealed and the fluorescence intensity of each sample was measured by using a Wallac 1420 VICTOR^2™ plate reader (PerkinElmer) with excitation at 485 nm and emission detection at 535 nm. Finally, the data were normalized by using the controls and IC50-values were determined using GraphPad Prism™ (GraphPad) by fitting a logarithmic curve to the averaged datapoints.

[1] = Drug loading calculations via maintenance dose rate (rate of infusion); conditions: CLiv-mouse values scaled by 0.127 (GFR human/GFR mouse)
Procedure: The drug load for an implant comprising a peptide of the invention was calculated following the basic principles in pharmacokinetics (see also J. Gabrielsson, D. Weiner, "Pharmacokinetics and Pharmaco-dynamics Data Analysis: Concepts and Applications", 4th edition, Swedish Pharmaceutical Press, Stockholm, Sweden, 2006) whereby the maintainance dose rate (rate of infusion, Rin) can be defined as the rate at which a drug is to be administered to reach a steady state of a certain dose in the plasma. The maintainance dose rate can be expressed using the correlation Rin [g/(h*kg)] = CLiv[L/(h*kg)] x Css,eff [g/L], wherein CLiv is the clearance (i.v. - admin.) and Css,eff the effective concentration of the drug in the plasma at steady state considering an efficacy margin A: Css,eff [g/L] = A x (IC50/fu) x MW [(mol/L)*(g/mol)]. Therefore, the total amount of a drug loaded into an implant providing for a constant effective concentration of that drug in the plasma for a certain period of time in a subject of a certain body weight can be calculated by applying the following correlation: Drugload [g/subject] = Rin [g/(h*kg)] x duration[h] x BW [kg/subject]. [formula]
Further pre-conditions are an efficacy margin of A = 3, a study duration of 672 h (28 days) and a body weight of a human suject of 70 kg. The glomerular filtration rate (GFR) which mainly influences the clearance of the peptides is highly dependent on the species. In general, the GFR of humans is averaged to be 107 mL/(h*kg) compared to the GFR of mouse being 840 mL/(h*kg). Therefore, the CLiv-mouse values indicated in Table 5b were allometrically scaled by 107 mL/(h*kg)/840 mL/(h*kg) = 0.127 before employed in the above described correlations.

[2] = tested on: human red blood cells (hRBC); assay: Hemolysis; format: cell-based; conditions: 100 µM, 20% hRBC, 1 h at 37°C
Procedure: The peptides were tested for their hemolytic activity against human red blood cells (hRBC). Fresh hRBC were washed four times with phosphate buffered saline (PBS) and centrifuged for 10 min at 3000 x g. Compounds (100 µM) were incubated with 20% hRBC (v/v) for 1 h at 37°C and shaking at 300 rpm. The final erythrocyte concentration was approximately 0.9 x 10^9 cells/mL. A value of 0% and 100% cell lysis, respectively, was determined by incubation of hRBC in the presence of PBS containing 0.001% acetic acid and 2.5% Triton X-100 in H2O respectively. The samples were centrifuged, the supernatants were 8-fold diluted in PBS buffer and the optical densities (OD) were measured at 540 nm. The 100% lyses value (OD540H2O) gave an OD540 of approximately 0.5-1.0. Percent hemolysis was calculated as follows: (OD540peptide/OD540H2O) x 100%. [formula]

[3] = Plasma stability, human plasma; format: in vitro ADME; conditions: human plasma, 37° C, last time point 1440 min
Procedure: (§1) The stability of the peptides in human and mouse plasma was determined by applying the following method: 346.5 µL/deep well of freshly thawed human plasma (Basler Blutspende-dienst) and mouse plasma (Harlan Sera-Lab, UK), respectively, were spiked with 3.5 µL/well of compound dissolved in DMSO/H2O (90/10 [v/v], 1 mM, triplicate) and incubated at 37° C. At t = 0, 15, 30, 60, 120, 240 and 1440 min aliquots of 50 µL were transferred to filtration plate wells containing 150 µL/well of 2% formic acid in acetonitrile. Following shaking for 2 min the occurred suspensions were filtrated by vacuum. 100 µL of each filtrate were transferred to a propylene microtiter plate and dried under N2. The residual solids were reconstituted by adding 100 µL/well of water/acetonitrile, 95/5 (v/v) + 0.2% formic acid and analyzed by LC/MS as follows: Column: Waters, XBridge C18, mobile phases: (A) water + 0.1% formic acid and (B) acetonitrile/water, 95/5 (v/v) + 0.1% formic acid, gradient: 5%-100% (B) in 1.8 minutes, electrospray ionization, MRM detection (triple quadrupole). The peak areas were determined and triplicate values are averaged. The stability is expressed in percent of the initial value at t = 0. (tx/t0 x 100). By using the TREND function of EXCEL (Microsoft Office 2003) T1/2 were determined.

[4] = Plasma stability, mouse plasma; format: in vitro ADME; conditions: mouse plasma, 37° C, last time point 1440 min
Procedure: as §1

| SMILES | IC50 (CXCR4 receptor) [nM] | CLiv, human (allometric scaled) [1] [mL/h/kg] | Hemolysis at 100 µM [2] [%] | Plasma stability human pl. T1/2 [3] [min] | Plasma stability mouse pl. T1/2 [4] [min] |
| --- | --- | --- | --- | --- | --- |
| CC(C)NCCCC[C@@H]1NC(=O)[C@H](CCC(N)=O)NC(=O)[C@H](Cc2ccc(O)cc2)NC(=O)[C@@H]2CSSC[C@H](NC(=O)[C@H](C)NC(=O)[C@H](Cc3c[nH]cn3)NC(=O)[C@H](Cc3ccc(O)cc3)NC(=O)[C@@H]3CCCN3C(=O)[C@H]3CCCN3C1=O)C(=O)N[C@@H](CO)C(=O)N[C@@H](C)C(=O)N[C@H](Cc1ccc(O)cc1)C(=O)N[C@@H](CCN)C(=O)N[C@@H](CCCNC(=N)N)C(=O)N[C@@H](Cc1ccc(O)cc1)C(=O)N2 [Ex. 3, cyclo(-Tyr^1-His^2-Ala^3-Cys^4-Ser^5-Ala^6-^DTyr^7-Dab^8-Arg^9-Tyr^10-Cys^11-Tyr^12-Gln^13-Lys(iPr)^14-^DPro^15-Pro^16-), disulfide bond between Cys^4 and Cys^11] (cyclo(YHACSA[dY][Dab]RYCYQ[Lys(iPr)][dP]P); disulfide 4-11) | 0.11 ± 0.01 | 141 | 1.0 | 1440 | 1440 |
| CC(C)NCCCC[C@@H]1NC(=O)[C@H](CCC(N)=O)NC(=O)[C@H](Cc2ccc(O)cc2)NC(=O)[C@@H]2CSSC[C@H](NC(=O)[C@H](Cc3ccc(O)cc3)NC(=O)[C@H](Cc3c[nH]cn3)NC(=O)[C@H](Cc3ccc(O)cc3)NC(=O)[C@@H]3CCCN3C(=O)[C@H]3CCCN3C1=O)C(=O)N[C@@H](CO)C(=O)N[C@@H](C)C(=O)N[C@H](Cc1ccc(O)cc1)C(=O)N[C@@H](CCCNC(C)C)C(=O)N[C@@H](CCCNC(=N)N)C(=O)N[C@@H](Cc1ccc(O)cc1)C(=O)N2 [Ex. 5, cyclo(-Tyr^1-His^2-Tyr^3-Cys^4-Ser^5-Ala^6-^DTyr^7-Orn(iPr)^8-Arg^9-Tyr^10-Cys^11-Tyr^12-Gln^13-Lys(iPr)^14-^DPro^15-Pro^16-), disulfide bond between Cys^4 and Cys^11] (cyclo(YHYCSA[dY][Orn(iPr)]RYCYQ[Lys(iPr)][dP]P); disulfide 4-11) | 0.43 ± 0.24 | 106 | 3.5 | 1440 | 1440 |
